Here are results for eleven compounds from ChEMBL document CHEMBL5291721, “A preclinical secondary pharmacology resource illuminates target-adverse drug reaction associations of marketed drugs” (Nat Commun, 2023).

A value given as a limit tells only on which side of the number the result lay.

In one test the target is Cannabinoid receptor 1 (Homo sapiens, UniProt P21554). The test is classed as functional.
The target in the next test is D(1B) dopamine receptor (Homo sapiens, UniProt P21918).
In test [1] the target is Rod cGMP-specific 3',5'-cyclic phosphodiesterase subunit alpha (Homo sapiens, UniProt P16499). In kind it is functional.
The target in test [2] is T1, Type-2 angiotensin II receptor (Homo sapiens, UniProt P50052).
T1 sequence (P50052 whole entry): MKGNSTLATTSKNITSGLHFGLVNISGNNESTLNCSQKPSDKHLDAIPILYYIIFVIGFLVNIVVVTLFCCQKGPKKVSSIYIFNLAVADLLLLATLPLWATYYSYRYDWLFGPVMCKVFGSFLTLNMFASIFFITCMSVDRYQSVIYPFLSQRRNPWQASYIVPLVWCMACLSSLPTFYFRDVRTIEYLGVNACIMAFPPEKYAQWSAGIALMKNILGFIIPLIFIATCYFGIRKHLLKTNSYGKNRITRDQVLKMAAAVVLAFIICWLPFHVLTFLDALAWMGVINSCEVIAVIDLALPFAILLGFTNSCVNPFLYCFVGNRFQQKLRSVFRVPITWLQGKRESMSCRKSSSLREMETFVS
The test is classed as functional.

The target in test [3] is T2, Muscarinic acetylcholine receptor M5 (Homo sapiens, UniProt P08912).
T2 sequence (P08912 whole entry): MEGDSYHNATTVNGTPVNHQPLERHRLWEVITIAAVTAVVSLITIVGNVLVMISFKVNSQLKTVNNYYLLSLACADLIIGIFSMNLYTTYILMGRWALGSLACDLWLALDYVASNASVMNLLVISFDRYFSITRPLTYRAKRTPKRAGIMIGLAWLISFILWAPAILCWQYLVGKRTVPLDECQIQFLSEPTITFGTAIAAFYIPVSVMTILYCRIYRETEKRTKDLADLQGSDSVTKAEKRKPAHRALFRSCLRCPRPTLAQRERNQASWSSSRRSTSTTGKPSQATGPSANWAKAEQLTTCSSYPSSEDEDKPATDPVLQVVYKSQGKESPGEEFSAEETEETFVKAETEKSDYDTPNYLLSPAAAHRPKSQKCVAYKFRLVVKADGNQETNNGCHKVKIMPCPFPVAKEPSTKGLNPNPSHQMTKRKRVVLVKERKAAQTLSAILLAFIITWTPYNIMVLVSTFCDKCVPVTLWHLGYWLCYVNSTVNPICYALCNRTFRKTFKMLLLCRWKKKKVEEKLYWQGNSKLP

For test [4], the target named is 5-hydroxytryptamine receptor 5A (Homo sapiens, UniProt P47898).
The target in test [5] is T3, Muscarinic acetylcholine receptor M2 (Homo sapiens, UniProt P08172).
T3 sequence (P08172 whole entry): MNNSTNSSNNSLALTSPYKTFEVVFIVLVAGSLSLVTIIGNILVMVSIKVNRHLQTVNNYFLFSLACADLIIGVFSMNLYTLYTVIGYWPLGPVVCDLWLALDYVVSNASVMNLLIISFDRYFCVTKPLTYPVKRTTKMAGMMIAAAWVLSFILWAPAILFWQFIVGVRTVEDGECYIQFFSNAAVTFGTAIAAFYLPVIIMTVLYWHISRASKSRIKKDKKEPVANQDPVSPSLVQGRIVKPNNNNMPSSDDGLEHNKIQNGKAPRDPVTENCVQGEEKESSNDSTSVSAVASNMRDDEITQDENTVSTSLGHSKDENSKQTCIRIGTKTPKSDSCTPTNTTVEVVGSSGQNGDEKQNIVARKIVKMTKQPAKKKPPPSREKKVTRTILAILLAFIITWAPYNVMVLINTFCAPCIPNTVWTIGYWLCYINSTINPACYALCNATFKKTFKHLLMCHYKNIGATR

Test [6] has as its target Voltage-dependent L-type calcium channel subunit alpha-1C (Homo sapiens, UniProt Q13936). In kind it is functional, cell-based.
Test [7] addresses T4, Histamine H1 receptor (Homo sapiens, UniProt P35367). In kind it is functional, cell-based.
The target of test [8] is T4, Histamine H1 receptor. In kind it is functional, cell-based. The source holds these as a separate data set.
The target of test [9] is Oxysterols receptor LXR-alpha (Homo sapiens, UniProt Q13133). In kind it is functional.
Test [10] has as its target Oxysterols receptor LXR-beta (Homo sapiens, UniProt P55055). The test is classed as functional.
The target of test [11] is Retinoic acid receptor gamma (Homo sapiens, UniProt P13631). The test is classed as functional, cell-based.
The target of test [12] is T5, Retinoic acid receptor beta (Homo sapiens, UniProt P10826). The test is classed as functional, cell-based.
Test [13] has as its target Retinoic acid receptor alpha (Homo sapiens, UniProt P10276). The test is classed as functional, cell-based.
The target in test [14] is T6, Peroxisome proliferator-activated receptor alpha (Homo sapiens, UniProt Q07869).
T6 sequence (Q07869 whole entry): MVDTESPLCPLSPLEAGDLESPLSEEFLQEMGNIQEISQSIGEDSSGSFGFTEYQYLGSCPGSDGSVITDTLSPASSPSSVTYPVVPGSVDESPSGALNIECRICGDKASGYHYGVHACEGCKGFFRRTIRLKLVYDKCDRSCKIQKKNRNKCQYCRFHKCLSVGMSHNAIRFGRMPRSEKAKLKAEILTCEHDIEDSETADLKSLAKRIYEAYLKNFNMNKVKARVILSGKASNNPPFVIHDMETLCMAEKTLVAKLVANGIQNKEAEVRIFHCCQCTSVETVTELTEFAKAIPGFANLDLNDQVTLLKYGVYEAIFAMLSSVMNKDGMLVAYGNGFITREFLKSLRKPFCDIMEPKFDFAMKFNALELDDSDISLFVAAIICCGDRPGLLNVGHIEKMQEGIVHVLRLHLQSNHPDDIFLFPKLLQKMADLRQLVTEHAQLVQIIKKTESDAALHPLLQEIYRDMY
The test is classed as functional.

Test [15] addresses T6, Peroxisome proliferator-activated receptor alpha. The test is classed as functional. This is another data set of the same source.
Test [16] has as its target T5, Retinoic acid receptor beta. In kind it is functional, cell-based. The source holds these as a separate data set.
Further: assay procedure not described here.

Cannabinoid receptor 1, sequence (P21554 whole entry): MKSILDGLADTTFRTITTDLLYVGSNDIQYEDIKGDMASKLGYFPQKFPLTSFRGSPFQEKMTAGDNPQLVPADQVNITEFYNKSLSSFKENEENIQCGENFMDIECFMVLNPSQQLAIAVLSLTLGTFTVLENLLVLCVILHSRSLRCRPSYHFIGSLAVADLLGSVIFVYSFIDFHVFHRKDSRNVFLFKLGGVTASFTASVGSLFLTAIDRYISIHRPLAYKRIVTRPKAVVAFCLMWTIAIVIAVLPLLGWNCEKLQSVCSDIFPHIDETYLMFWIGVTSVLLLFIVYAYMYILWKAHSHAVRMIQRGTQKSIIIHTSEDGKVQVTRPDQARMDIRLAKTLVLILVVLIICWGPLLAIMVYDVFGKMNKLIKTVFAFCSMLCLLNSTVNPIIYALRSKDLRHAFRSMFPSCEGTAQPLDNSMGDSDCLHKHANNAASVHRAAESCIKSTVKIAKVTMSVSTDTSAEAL
Voltage-dependent L-type calcium channel subunit alpha-1C, sequence (Q13936 whole entry): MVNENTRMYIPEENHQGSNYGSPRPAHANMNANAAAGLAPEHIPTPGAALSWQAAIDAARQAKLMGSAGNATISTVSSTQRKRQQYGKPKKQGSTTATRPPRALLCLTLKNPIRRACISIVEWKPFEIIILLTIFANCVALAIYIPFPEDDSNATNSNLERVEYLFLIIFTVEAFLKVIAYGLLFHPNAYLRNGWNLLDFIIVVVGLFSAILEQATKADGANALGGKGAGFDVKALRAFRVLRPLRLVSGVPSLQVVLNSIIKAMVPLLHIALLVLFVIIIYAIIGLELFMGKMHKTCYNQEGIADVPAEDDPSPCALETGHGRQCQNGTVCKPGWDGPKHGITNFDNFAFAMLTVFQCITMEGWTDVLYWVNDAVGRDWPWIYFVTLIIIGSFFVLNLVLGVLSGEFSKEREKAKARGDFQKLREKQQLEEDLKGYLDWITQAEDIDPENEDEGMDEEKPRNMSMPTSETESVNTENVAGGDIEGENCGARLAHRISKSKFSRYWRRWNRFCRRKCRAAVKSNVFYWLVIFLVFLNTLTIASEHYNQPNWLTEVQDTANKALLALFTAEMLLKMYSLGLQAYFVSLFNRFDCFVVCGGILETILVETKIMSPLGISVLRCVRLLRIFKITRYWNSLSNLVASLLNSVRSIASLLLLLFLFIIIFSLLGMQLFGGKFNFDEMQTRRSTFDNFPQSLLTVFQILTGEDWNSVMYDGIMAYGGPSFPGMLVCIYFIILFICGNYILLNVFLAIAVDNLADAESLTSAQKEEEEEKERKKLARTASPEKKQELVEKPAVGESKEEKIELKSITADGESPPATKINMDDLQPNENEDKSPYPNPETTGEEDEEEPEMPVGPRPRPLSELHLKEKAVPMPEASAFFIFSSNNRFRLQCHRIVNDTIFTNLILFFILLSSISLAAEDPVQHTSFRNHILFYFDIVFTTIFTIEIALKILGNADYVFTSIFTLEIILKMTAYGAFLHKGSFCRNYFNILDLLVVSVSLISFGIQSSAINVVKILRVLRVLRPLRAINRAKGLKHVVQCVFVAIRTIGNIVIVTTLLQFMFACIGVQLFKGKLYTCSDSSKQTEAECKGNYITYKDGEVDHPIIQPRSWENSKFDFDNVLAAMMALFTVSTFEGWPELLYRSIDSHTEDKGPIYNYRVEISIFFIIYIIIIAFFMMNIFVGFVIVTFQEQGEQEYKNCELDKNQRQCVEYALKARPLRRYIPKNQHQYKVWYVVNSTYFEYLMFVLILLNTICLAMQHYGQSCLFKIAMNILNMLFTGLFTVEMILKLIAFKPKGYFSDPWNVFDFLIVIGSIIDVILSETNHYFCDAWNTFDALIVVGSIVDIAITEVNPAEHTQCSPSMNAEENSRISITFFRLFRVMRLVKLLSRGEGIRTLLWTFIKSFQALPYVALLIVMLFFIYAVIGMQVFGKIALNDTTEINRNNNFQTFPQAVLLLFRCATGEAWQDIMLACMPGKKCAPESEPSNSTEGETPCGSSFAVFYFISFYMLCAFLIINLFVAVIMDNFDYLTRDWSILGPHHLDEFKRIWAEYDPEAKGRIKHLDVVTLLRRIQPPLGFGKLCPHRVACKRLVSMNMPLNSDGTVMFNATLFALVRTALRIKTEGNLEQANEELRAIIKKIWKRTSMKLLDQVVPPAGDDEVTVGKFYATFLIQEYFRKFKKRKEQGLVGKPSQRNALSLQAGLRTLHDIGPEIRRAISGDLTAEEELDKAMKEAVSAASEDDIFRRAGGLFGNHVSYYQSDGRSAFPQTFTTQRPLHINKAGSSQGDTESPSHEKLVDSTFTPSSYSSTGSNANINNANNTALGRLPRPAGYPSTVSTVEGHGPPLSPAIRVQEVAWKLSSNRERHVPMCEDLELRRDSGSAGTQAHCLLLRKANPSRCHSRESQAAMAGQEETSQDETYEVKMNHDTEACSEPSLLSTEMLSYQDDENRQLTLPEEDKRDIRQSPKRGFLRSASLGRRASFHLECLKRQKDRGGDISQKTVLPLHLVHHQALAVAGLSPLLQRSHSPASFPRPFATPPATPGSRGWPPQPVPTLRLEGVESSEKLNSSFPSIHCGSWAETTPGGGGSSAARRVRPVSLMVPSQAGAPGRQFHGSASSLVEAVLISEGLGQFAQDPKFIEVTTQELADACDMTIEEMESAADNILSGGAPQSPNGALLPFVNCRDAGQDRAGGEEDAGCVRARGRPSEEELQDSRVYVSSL
T4 sequence (P35367 whole entry): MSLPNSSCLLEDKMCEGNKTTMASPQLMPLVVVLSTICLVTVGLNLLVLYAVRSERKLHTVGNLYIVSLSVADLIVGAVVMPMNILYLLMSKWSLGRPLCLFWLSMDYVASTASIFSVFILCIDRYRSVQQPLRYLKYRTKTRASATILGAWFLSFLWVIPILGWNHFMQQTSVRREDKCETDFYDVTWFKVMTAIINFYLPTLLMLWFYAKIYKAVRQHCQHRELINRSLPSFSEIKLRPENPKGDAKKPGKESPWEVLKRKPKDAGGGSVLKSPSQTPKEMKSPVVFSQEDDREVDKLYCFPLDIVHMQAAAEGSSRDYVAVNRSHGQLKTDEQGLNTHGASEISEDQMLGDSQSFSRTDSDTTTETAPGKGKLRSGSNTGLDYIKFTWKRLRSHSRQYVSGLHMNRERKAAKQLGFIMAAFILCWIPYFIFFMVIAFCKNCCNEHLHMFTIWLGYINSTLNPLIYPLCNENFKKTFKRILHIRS
5-hydroxytryptamine receptor 5A, sequence (P47898 whole entry): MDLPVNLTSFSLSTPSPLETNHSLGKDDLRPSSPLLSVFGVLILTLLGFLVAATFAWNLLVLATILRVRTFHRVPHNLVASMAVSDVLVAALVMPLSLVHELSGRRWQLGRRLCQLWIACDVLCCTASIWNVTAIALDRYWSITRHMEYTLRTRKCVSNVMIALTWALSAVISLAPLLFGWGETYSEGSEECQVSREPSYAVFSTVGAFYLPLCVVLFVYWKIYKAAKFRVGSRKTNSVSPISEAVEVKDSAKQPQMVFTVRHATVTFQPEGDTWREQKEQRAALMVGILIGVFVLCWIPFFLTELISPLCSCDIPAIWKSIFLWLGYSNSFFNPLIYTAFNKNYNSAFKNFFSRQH
D(1B) dopamine receptor, sequence (P21918 whole entry): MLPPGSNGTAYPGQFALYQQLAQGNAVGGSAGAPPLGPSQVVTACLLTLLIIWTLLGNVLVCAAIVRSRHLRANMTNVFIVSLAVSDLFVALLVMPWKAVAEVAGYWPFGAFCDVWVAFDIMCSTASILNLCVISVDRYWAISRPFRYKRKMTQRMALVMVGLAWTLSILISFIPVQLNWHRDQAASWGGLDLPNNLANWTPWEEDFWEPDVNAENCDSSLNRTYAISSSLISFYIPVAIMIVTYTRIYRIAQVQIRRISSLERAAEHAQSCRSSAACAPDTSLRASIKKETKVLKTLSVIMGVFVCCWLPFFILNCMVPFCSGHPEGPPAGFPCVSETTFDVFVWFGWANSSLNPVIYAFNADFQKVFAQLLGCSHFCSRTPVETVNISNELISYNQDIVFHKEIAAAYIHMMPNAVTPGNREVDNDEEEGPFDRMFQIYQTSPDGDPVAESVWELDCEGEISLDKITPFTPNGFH
T5 sequence (P10826 whole entry): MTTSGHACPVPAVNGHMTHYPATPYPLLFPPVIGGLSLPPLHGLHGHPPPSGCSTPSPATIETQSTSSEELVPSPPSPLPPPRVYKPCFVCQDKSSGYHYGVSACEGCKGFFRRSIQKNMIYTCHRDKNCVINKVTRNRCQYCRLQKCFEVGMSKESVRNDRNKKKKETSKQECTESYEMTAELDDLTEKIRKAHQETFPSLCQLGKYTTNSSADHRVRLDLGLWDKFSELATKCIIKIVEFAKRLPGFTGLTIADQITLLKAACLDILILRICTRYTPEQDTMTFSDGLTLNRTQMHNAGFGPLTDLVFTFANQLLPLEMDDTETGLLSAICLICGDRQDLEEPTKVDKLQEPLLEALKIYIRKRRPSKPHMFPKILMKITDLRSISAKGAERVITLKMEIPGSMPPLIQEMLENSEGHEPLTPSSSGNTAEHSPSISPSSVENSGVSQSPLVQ
Retinoic acid receptor gamma, sequence (P13631 whole entry): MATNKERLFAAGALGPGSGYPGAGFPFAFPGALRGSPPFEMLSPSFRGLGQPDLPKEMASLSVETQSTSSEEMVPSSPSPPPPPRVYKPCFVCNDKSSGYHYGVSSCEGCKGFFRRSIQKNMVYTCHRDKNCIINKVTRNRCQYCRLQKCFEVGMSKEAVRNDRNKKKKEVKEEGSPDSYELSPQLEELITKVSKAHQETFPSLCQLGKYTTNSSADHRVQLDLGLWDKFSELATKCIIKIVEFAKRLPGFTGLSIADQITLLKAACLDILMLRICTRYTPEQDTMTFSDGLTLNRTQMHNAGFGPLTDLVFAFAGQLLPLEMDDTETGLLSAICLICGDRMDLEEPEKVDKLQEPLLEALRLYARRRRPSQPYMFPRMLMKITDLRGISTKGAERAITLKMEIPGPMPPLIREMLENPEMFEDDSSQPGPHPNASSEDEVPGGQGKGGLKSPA

As to `O=C(O)Cc1ccccc1Nc1c(Cl)cccc1Cl` [DICLOFENAC], the AC50 (commonly the midpoint of the concentration-response curve, whichever way the signal moves) was over 10 µM on Cannabinoid receptor 1; over 10 µM at D(1B) dopamine receptor; over 10 µM in test [1]; 85 µM in test [2]; over 10 µM in test [3]; over 10 µM in [4].

With `CCCc1nc2c(C)cc(-c3nc4ccccc4n3C)cc2n1Cc1ccc(-c2ccccc2C(=O)O)cc1`, the AC50 (on Cannabinoid receptor 1; in test [3]) was over 10 µM throughout.

As to `O=C1Cc2cc(CCN3CCN(c4nsc5ccccc45)CC3)c(Cl)cc2N1` [ZIPRASIDONE], the AC50 in test [5] is 6.3 µM; in [6] it was over 50 µM.

Take `Cc1nc(Nc2ncc(C(=O)Nc3c(C)cccc3Cl)s2)cc(N2CCN(CCO)CC2)n1` [DASATINIB]: the concentration at half-maximal activity (AC50) (on Cannabinoid receptor 1; in test [3]) was over 10 µM each time.

Turning to `CN(CCOc1ccc(CC2SC(=O)NC2=O)cc1)c1ccccn1` (stereo not drawn) [ROSIGLITAZONE], the concentration at half-maximal activity (AC50) (at Cannabinoid receptor 1; in test [3]) was over 10 µM throughout.

`CCOc1nc2cccc(C(=O)O)c2n1Cc1ccc(-c2ccccc2-c2nnn[nH]2)cc1`: the AC50 (on Cannabinoid receptor 1; on D(1B) dopamine receptor; in [1]; in test [3]; in test [4]) was over 10 µM in each case.

As for `CCCCCCCN(CC)CCCC(O)c1ccc(NS(C)(=O)=O)cc1` (stereo not drawn) [IBUTILIDE], in [6], the AC50 is over 30 µM.

Take `O=C(O)Cc1ccccc1Oc1ccc(Cl)cc1Cl` [FENCLOFENAC]: the AC50 at Histamine H1 receptor [7] and at Histamine H1 receptor [8] was over 30 µM in each case.

Regarding `COc1cc(C(=O)NS(=O)(=O)c2ccccc2C)ccc1Cc1cn(C)c2ccc(NC(=O)OC3CCCC3)cc12` [ZAFIRLUKAST], the AC50 is over 30 µM in test [9]; over 30 µM in test [10]; over 30 µM in [11]; 13 µM in test [12]; over 30 µM in test [13]; over 30 µM in test [14]. Further, the AC50 in test [15] and in test [16] was over 30 µM throughout.

On to `CCOc1cc([C@@H](CS(C)(=O)=O)N2C(=O)c3cccc(NC(C)=O)c3C2=O)ccc1OC`, for which the AC50 in test [6] was over 50 µM.

For `CN1Cc2c(N)cccc2C(c2ccccc2)C1` (stereo not drawn) [NOMIFENSINE], the half-maximal activity concentration (AC50) on Histamine H1 receptor [7] and at Histamine H1 receptor [8] was over 30 µM throughout.
